According to US4761410A, “Cephem Compounds” (Fujisawa Pharmaceutical Co., Ltd., priority 1985, dated 1988):
Values after ≈ are worked out from the molar mass of the structure shown.

Experiments:
Escherichia coli 29 = test: In vitro antibacterial activity (MIC) by two-fold agar-plate dilution method, Escherichia coli 29; type: cell-based; conditions: heart infusion agar, 37° C., 20 hours, read-out: MIC (minimal inhibitory concentration)
Procedure: (§1) In vitro antibacterial activity was determined by the two-fold agar-plate dilution method as described below.
(§2) One loopful of an overnight culture of each test strain in Trypticase-soy broth (10^8 viable cells per ml) was streaked on heart infusion agar HI-agar) containing graded concentrations of representative test compound, and the minimal inhibitory concentration (MIC) was expressed in terms of μg/ml after incubation at 37° C. for 20 hours.

[1] = tested on: Proteus vulgaris IAM 1025; test: In vitro antibacterial activity (MIC) by two-fold agar-plate dilution method, Proteus vulgaris IAM 1025; type: cell-based; conditions: IAM1025, heart infusion agar, 37° C., 20 hours, read-out: MIC (minimal inhibitory concentration)
Procedure: as §1, §2

MIC (Escherichia coli 29) | MIC [1] | SMILES
≤ 0.025 µg/mL | ≤ 0.025 µg/mL | Cc1ccc[n+](CC2=C(C(=O)[O-])N3C(=O)C(NC(=O)/C(=N\OC(F)F)c4csc(N)n4)C3SC2)c1 (stereo not drawn) [Test Compound (1), 7-[2-(2-Aminothiazol-4-yl)-2-difluoromethoxyiminoacetamido]-3-(3-methyl-1-pyridiniomethyl)-3-cephem-4-carboxylate]
0.2 µg/mL (≈ 0.355 µM) | 0.05 µg/mL (≈ 0.0887 µM) | Cc1nsc(SCC2=C(C(=O)O)N3C(=O)C(NC(=O)/C(=N\OC(F)F)c4csc(N)n4)C3SC2)n1 (stereo not drawn) [Test Compound (2), 7-[2-(2-Aminothiazol-4-yl)-2-difluoromethoxyiminoacetamido]-3-(3-methyl-1,2,4-thiadiazol-5-yl)thiomethyl-3-cephem-4-carboxylic acid]
0.1 µg/mL (≈ 0.182 µM) | ≤ 0.025 µg/mL | Nc1nc(/C(=N/OC(F)F)C(=O)NC2C(=O)N3C(C(=O)O)=C(CSc4ncns4)CSC23)cs1 (stereo not drawn) [Test Compound (3), 7-[2-(2-Aminothiazol-4-yl)-2-difluoromethoxyiminoacetamido]-3-(1,2,4-thiadiazol-5-yl)thiomethyl-3-cephem-4-carboxylic acid]
